“And” between values parts separate entries of the source, which are not always exact repeats. Equal entries are not always repeated.
Assays:
[1] = injection (i.m.) in man; cited from earlier work
[2] = compared with DHEA; cited from earlier work
[3] = Absorption and blood level profiles after oral suspensions, three-way crossover; serum alpha-ET by RIA; assay type: in vivo, human; settings: 200 mg oral suspension, at 4 hours past administration
Method: Each subject received all three drugs in randomized order with a one-week wash-out period between doses. Following an overnight fast, subjects received 200 mg of test drug suspended in approximately 6 oz of apple juice. Blood samples were drawn immediately prior to drug administration and at 15 minutes, 30 minutes, 1, 2, 4, 8, 12 and 24 hours.

[4] = Weight gain, food consumption, fat pad and alpha-ET blood level in normal rats fed steroid in diet for three weeks; assay type: in vivo, Sprague-Dawley rats; settings: for FOOD CONSUMPTION: 0.367% in diet (dose from method)
Method: All of the above considerations make ET-dione not only suitable but preferred in the treatment of diabetes, obesity and blood suppressive disorders such as aplastic anemia.
Food consumption and body weight were measured weekly. Blood samples were taken at the end of the study for assay of alpha-ET by RIA and measurement of serum total cholesterol, HDL-cholesterol and triglycerides. Liver weight (absolute and % of body weight), total cholesterol, % of esterified cholesterol and triglycerides in the liver were also determined. In addition, epididymal fat pad weights were measured.

[5] = Second study: body weight gain and food consumption in rats on higher-fat diet with steroid; assay type: in vivo, Sprague-Dawley rats; settings: for FOOD CONSUMPTION: Av.Wks 1 - 4 (control 23.4)
Method: A second study was carried out on male Sprague-Dawley rats with initial starting weight of 272 ± 5 gms. […] On the last day of the study the animals were dosed with approximately 1 micro Ci of ^3H labeled material (Amersham) corresponding to the treatment they had received. Groups of three animals- were sacrificed at 1 hour, 4 hours and 12 hours after dosing, and the adrenals, gonads, liver, epididymal fat pads, and blood collected for analysis. Urine and feces were also collected during the post-tracer dosing period.

Compound: C[C@]12CC[C@H](O)C[C@H]1CC[C@@H]1[C@@H]2CC[C@]2(C)C(=O)CC[C@@H]12 [Beta-ET, 5-beta-androstan-3-beta-ol-17-one]
- pyrogenic effect [1]: little pyrogenic effect
- effectiveness in preventing the development of diabetes [2]: four times more effective than DHEA

Compound: C[C@]12CCC(=O)C[C@H]1CC[C@@H]1[C@@H]2CC[C@]2(C)C(=O)CC[C@@H]12 [ET-dione, 5-beta-androstanedione]
- free alpha-ET levels compared with alpha-ET or beta-ET administration [3]: significantly higher
- % W vs Control Day 21 ([4]; 0.367% in diet): -16.6%
- FOOD CONSUMPTION ([4]; Average, mean ± S.E. (control 25.6 ± 0.6), significantly different from control (p < 0.05)): 23.4 ± 0.6 g/rat/day
- FOOD CONSUMPTION ([4]; week 1, mean ± S.E. (control 26.8 ± 0.8)): 23.0 ± 0.6 g/rat/day
- FOOD CONSUMPTION ([4]; week 2, mean ± S.E. (control 24.9 ± 0.6)): 24.6 ± 0.5 g/rat/day
- FOOD CONSUMPTION ([4]; week 3, mean ± S.E. (control […] ± 0.6)): 22.6 ± 0.5 g/rat/day
- Weight ([4]; 0.367% in diet, Day 0, mean ± S.E.): 260 ± 3 g
- W(g) (weight gain) ([4]; 0.367% in diet, Day 7 (control 48)): 38 g
- Weight ([4]; 0.367% in diet, Day 7, mean ± S.E. (control 308 ± 5)): 298 ± 2 g
- W(g) (weight gain) ([4]; 0.367% in diet, Day 14 (control 94)): 81 g
- Weight ([4]; 0.367% in diet, Day 14, mean ± S.E. (control 354 ± 6)): 341 ± 3 g
- W(g) (weight gain) ([4]; 0.367% in diet, Day 21 (control 121), significantly different from control (p < .05)): 101 g and 101+ g
- Weight ([4]; 0.367% in diet, Day 21, mean ± S.E. (control 381 ± 7)): 361 ± 3 g
- Fat Pad as % of Body Wt ([4]; 0.367% in diet, three weeks (control 1.02 ± 0.08)): 0.97 ± 0.07%
- Fat Pad Wt ([4]; epididymal fat pad, 0.367% in diet, three weeks (control 3.88 ± 0.29)): 3.50 ± 0.26 g
- % W vs Control Day 28 ([5]; 0.4% in diet): -18.6%
- FOOD CONSUMPTION ([5]; 0.4% in diet): 22.0 g/day
- BODY WEIGHT GAINS ([5]; 0.4% in diet, Day 7 (control 56)): 44
- BODY WEIGHT GAINS ([5]; 0.4% in diet, Day 14 (control 109)): 89
- BODY WEIGHT GAINS ([5]; 0.4% in diet, Day 21 (control 145)): 117
- BODY WEIGHT GAINS ([5]; 0.4% in diet, Day 28 (control 183)): 149
- % W vs Control Day 28 ([5]; 0.8% in diet): -21.3%
- FOOD CONSUMPTION ([5]; 0.8% in diet): 20.6 g/day
- BODY WEIGHT GAINS ([5]; 0.8% in diet, Day 7 (control 56)): 34
- BODY WEIGHT GAINS ([5]; 0.8% in diet, Day 14 (control 109)): 83
- BODY WEIGHT GAINS ([5]; 0.8% in diet, Day 21 (control 145)): 112
- BODY WEIGHT GAINS ([5]; 0.8% in diet, Day 28 (control 183)): 144
- effectiveness in reducing weight gain compared with alpha-ET ([5]; at all concentrations tested): almost twice as effective as alpha-ET

— patent EP0261891A2, “Pharmaceutical compositions containing etiochiolandione” (Progenics, Inc., priority 1986, dated 1988)
